# Results taken from PMC13210772, “Dual FLT3/MAPK14 Proteolysis-Targeting Chimera (PROTAC) Induces Potent Acute Myeloid Leukemia Cell Death” (Pharmaceuticals, 2026).
# Assays:
# Test in all cases: NanoBRET CELLinib128
# Assay type in all cases: binding
# NEK3 = target: T1, NEK3 (Homo sapiens, UniProt P51956); details: 100% no effect, 0% complete tracer displacement, read-out: Tracer bound
# T1 construct: Full-length kinase ORF (Promega, Madison, WI, USA) cloned in frame with a NanoLuc-vector was transfected into HEK293T cells; host or cells: HEK293T
# Procedure: (§1) To get an impression about the binding strength of the PROTAC MA191 and the reference inhibitor MA68 to other kinases besides FLT3-ITD the binding on a kinase panel of further 128 representative protein kinases at 1 μM concentration was tested using the NanoBRET^TM cellular target engagement assay (CELLinib128 assay, CELLinib GmbH, Frankfurt, Germany). […] In none of the 128 kinases MA191 was able to displace the tracer (inhibitor) used by more than 50%, Table S1, Supplementary Information).
# (§2) The CELLinib128 assay was performed by CELLinib GmbH, Frankfurt (Germany) as described previously. In brief: Full-length kinase ORF (Promega, Madison, WI, USA) cloned in frame with a NanoLuc-vector was transfected into HEK293T cells in Opti-MEM without phenol red (Life Technologies, Carlsbad, CA, USA) at a density of 2 × 10^5 cells/mL using FuGENE HD (Promega, E2312) and proteins were allowed to express for 20 h. For CDKs, where indicated below, an excess of an activator without an NLuc-fusion was cotransfected. […] The system was allowed to equilibrate at 37 °C for 2 h and 5% CO2 prior to BRET measurements. For PKCs, a chemical activator PMA was added in a final concentration of 1 µM was added together with test compounds and tracers (Promega, V1171). To measure BRET, NanoBRET^TM NanoGlo substrate + extracellular NanoLuc inhibitor (Promega, N2160) were added as per the manufacturer’s protocol, and filtered luminescence was measured (450 nm BP filter (donor) and 610 nm LP filter (acceptor)). For the 1-shot test compounds, data were normalized to the tracer control and the background control or control compound plateau and an average and SD were calculated. […] For the control compounds competitive displacement data were normalized to the tracer Ctrl and the background Ctrl and then plotted and fitted using GraphPad Prism 10 software using a normalized 3-parameter curve fit with the following equation: Y = 100/(1 + 10^X−LogIC50).
# SIK3 = target: T2, SIK3 (Homo sapiens, UniProt Q9Y2K2); details: 1 µM; 100% no effect, 0% complete tracer displacement
# T2 construct: Full-length kinase ORF (Promega, Madison, WI, USA) cloned in frame with a NanoLuc-vector was transfected into HEK293T cells; host or cells: HEK293T
# Procedure: as §1, §2
# MAP3K9 = target: T3, MAP3K9 (Homo sapiens, UniProt P80192); details: 100% no effect, 0% complete tracer displacement, read-out: Tracer bound
# T3 construct: Full-length kinase ORF (Promega, Madison, WI, USA) cloned in frame with a NanoLuc-vector was transfected into HEK293T cells; host or cells: HEK293T
# Procedure: as §1, §2
# FGFR4 = target: T4, FGFR4 (Homo sapiens, UniProt P22455); details: 100% no effect, 0% complete tracer displacement, read-out: Tracer bound
# T4 construct: Full-length kinase ORF (Promega, Madison, WI, USA) cloned in frame with a NanoLuc-vector was transfected into HEK293T cells; host or cells: HEK293T
# Procedure: as §1, §2
# TYK2 = target: T5, TYK2 (Homo sapiens, UniProt P29597); details: 1 µM; 100% no effect, 0% complete tracer displacement
# T5 construct: Full-length kinase ORF (Promega, Madison, WI, USA) cloned in frame with a NanoLuc-vector; host or cells: HEK293T
# Procedure: as §1, §2
# SNRK = target: T6, SNRK (Homo sapiens, UniProt Q9NRH2); details: 100% no effect, 0% complete tracer displacement, read-out: Tracer bound
# T6 construct: Full-length kinase ORF (Promega, Madison, WI, USA) cloned in frame with a NanoLuc-vector was transfected into HEK293T cells; host or cells: HEK293T
# Procedure: as §1, §2
# IRAK4 = target: T7, IRAK4 (Homo sapiens, UniProt Q9NWZ3); details: 1 µM; 100% no effect, 0% complete tracer displacement
# T7 construct: Full-length kinase ORF (Promega, Madison, WI, USA) cloned in frame with a NanoLuc-vector was transfected into HEK293T cells; host or cells: HEK293T
# Procedure: as §1, §2
# CDK2-CCNE1 = target: T8, CDK2-CCNE1 (Homo sapiens, UniProt P24941); details: 1 µM; 100% no effect, 0% complete tracer displacement
# T8 construct: Full-length kinase ORF (Promega, Madison, WI, USA) cloned in frame with a NanoLuc-vector was transfected into HEK293T cells; host or cells: HEK293T
# Procedure: as §1, §2
# MUSK = target: T9, MUSK (Homo sapiens, UniProt O15146); details: 100% no effect, 0% complete tracer displacement, read-out: Tracer bound
# T9 construct: Full-length kinase ORF (Promega, Madison, WI, USA) cloned in frame with a NanoLuc-vector was transfected into HEK293T cells; host or cells: HEK293T
# Procedure: as §1, §2
# PAK4 = target: T10, PAK4 (Homo sapiens, UniProt O96013); details: 100% no effect, 0% complete tracer displacement, read-out: Tracer bound
# T10 construct: Full-length kinase ORF (Promega, Madison, WI, USA) cloned in frame with a NanoLuc-vector was transfected into HEK293T cells; host or cells: HEK293T
# Procedure: as §1, §2
# PRKCD-PMA = target: T11, PRKCD-PMA (Homo sapiens, UniProt Q05655); details: 100% no effect, 0% complete tracer displacement, read-out: Tracer bound
# T11 construct: Full-length kinase ORF (Promega, Madison, WI, USA) cloned in frame with a NanoLuc-vector was transfected into HEK293T cells; host or cells: HEK293T
# Procedure: as §1, §2
# RPS6KA6 = target: T12, RPS6KA6 (Homo sapiens, UniProt Q9UK32); details: 1 µM; 100% no effect, 0% complete tracer displacement
# T12 construct: Full-length kinase ORF (Promega, Madison, WI, USA) cloned in frame with a NanoLuc-vector was transfected into HEK293T cells; host or cells: HEK293T
# Procedure: as §1, §2
# BRSK1 = target: T13, BRSK1 (Homo sapiens, UniProt Q8TDC3); details: 100% no effect, 0% complete tracer displacement, read-out: Tracer bound
# T13 construct: Full-length kinase ORF (Promega, Madison, WI, USA) cloned in frame with a NanoLuc-vector was transfected into HEK293T cells; host or cells: HEK293T
# Procedure: as §1, §2
# PRKCE-PMA = target: T14, PRKCE-PMA (Homo sapiens, UniProt Q02156); details: 100% no effect, 0% complete tracer displacement, read-out: Tracer bound
# T14 construct: Full-length kinase ORF (Promega, Madison, WI, USA) cloned in frame with a NanoLuc-vector was transfected into HEK293T cells; host or cells: HEK293T
# Procedure: as §1, §2
# PHKG1 = target: T15, PHKG1 (Homo sapiens, UniProt Q16816); details: 100% no effect, 0% complete tracer displacement, read-out: Tracer bound
# T15 construct: Full-length kinase ORF (Promega, Madison, WI, USA) cloned in frame with a NanoLuc-vector was transfected into HEK293T cells; host or cells: HEK293T
# Procedure: as §1, §2
# T1 sequence (P51956 whole entry): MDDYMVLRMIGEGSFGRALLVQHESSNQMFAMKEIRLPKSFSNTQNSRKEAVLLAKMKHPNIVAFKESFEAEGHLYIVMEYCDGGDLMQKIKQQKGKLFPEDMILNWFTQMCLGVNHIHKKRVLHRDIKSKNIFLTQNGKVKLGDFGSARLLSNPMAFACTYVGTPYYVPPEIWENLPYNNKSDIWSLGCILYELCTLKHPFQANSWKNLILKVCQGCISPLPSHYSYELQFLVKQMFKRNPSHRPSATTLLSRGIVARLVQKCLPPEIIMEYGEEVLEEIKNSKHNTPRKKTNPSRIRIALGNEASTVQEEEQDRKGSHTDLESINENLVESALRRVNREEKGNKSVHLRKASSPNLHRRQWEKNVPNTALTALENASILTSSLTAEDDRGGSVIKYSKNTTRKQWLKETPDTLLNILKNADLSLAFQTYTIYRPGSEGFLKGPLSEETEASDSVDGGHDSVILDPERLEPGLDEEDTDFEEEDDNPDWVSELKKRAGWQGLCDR
# T13 sequence (Q8TDC3 whole entry): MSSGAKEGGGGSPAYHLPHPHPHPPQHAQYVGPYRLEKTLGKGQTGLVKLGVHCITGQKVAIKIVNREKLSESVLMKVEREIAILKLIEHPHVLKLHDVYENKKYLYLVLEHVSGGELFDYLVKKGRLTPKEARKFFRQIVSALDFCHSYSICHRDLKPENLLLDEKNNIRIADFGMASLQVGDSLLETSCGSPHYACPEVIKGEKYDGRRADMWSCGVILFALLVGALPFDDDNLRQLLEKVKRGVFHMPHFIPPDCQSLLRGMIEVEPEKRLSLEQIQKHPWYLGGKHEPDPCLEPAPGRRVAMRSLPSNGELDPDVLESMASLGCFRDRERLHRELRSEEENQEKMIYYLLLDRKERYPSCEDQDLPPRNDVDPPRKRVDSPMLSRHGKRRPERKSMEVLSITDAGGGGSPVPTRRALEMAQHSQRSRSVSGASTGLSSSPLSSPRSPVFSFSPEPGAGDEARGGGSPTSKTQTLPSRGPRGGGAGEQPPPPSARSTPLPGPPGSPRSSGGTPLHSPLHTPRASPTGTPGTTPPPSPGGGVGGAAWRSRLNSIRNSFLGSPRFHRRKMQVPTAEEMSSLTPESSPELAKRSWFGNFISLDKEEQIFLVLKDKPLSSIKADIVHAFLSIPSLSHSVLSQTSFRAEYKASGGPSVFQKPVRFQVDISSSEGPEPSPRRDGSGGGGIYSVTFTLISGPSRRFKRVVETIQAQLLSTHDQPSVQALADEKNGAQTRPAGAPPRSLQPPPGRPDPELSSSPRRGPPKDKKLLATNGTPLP
# T7 sequence (Q9NWZ3 whole entry): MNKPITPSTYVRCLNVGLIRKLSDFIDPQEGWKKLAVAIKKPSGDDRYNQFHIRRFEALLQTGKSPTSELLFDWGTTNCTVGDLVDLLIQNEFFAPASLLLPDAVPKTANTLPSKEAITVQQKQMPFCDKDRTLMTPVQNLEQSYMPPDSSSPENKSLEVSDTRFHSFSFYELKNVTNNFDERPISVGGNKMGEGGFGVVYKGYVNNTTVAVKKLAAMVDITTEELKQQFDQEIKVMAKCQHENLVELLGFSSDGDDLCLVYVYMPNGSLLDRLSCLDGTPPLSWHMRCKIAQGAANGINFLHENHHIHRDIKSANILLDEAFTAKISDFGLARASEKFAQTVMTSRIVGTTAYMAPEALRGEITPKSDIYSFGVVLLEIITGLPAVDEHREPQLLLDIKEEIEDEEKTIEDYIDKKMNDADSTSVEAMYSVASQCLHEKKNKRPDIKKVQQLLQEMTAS
# T10 sequence (O96013 whole entry): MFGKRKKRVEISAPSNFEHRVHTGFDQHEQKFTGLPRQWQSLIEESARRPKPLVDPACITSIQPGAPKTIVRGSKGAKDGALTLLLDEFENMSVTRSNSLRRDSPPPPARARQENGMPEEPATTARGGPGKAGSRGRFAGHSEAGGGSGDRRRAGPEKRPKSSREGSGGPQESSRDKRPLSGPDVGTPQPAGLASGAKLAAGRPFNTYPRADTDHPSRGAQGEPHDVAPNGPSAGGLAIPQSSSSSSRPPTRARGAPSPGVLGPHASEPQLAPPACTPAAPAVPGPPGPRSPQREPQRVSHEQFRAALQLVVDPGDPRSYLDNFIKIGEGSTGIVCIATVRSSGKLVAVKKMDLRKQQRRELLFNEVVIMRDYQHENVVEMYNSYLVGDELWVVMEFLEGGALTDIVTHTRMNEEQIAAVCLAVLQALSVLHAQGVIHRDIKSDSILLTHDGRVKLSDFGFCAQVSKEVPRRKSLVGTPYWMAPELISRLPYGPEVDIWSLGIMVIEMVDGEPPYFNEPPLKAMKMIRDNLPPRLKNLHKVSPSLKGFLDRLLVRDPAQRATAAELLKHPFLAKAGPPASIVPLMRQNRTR
# T12 sequence (Q9UK32 whole entry): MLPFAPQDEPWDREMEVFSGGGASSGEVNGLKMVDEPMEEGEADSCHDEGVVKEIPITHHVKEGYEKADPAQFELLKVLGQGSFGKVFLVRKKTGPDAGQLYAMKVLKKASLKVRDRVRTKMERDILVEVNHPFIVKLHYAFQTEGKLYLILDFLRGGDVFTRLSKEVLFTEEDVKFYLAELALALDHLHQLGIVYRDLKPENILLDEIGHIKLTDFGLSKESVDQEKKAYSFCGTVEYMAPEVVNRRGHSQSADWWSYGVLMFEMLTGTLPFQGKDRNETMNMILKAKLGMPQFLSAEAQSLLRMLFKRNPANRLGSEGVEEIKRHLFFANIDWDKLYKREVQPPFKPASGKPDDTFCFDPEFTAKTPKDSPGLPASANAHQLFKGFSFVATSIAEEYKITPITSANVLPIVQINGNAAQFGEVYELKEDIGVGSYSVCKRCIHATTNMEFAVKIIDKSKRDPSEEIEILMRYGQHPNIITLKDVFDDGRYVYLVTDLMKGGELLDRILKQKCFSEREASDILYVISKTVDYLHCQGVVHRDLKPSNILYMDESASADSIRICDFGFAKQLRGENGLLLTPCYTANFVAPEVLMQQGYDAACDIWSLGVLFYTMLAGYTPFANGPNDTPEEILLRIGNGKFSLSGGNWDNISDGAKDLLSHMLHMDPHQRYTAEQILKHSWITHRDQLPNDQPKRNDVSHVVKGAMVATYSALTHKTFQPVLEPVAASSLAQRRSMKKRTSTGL
# T14 sequence (Q02156 whole entry): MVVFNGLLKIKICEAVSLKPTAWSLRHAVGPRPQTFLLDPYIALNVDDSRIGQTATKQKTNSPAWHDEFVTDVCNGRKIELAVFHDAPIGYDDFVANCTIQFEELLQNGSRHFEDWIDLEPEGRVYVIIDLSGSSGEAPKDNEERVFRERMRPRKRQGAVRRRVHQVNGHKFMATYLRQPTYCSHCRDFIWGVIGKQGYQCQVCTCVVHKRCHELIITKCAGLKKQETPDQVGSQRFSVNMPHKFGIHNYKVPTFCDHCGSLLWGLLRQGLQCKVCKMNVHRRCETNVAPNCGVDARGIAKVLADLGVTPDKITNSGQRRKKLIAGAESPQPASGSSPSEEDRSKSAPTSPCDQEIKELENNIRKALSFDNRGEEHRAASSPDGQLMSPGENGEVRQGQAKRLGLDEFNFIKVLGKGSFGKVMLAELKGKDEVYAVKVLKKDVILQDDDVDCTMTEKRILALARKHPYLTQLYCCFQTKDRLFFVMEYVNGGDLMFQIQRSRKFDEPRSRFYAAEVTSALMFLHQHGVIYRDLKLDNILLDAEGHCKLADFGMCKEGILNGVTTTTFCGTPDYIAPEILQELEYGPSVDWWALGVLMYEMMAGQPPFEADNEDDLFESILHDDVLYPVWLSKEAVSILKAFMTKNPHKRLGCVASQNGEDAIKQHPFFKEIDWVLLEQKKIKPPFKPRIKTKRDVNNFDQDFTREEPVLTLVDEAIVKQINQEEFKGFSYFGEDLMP
# T3 sequence (P80192 whole entry): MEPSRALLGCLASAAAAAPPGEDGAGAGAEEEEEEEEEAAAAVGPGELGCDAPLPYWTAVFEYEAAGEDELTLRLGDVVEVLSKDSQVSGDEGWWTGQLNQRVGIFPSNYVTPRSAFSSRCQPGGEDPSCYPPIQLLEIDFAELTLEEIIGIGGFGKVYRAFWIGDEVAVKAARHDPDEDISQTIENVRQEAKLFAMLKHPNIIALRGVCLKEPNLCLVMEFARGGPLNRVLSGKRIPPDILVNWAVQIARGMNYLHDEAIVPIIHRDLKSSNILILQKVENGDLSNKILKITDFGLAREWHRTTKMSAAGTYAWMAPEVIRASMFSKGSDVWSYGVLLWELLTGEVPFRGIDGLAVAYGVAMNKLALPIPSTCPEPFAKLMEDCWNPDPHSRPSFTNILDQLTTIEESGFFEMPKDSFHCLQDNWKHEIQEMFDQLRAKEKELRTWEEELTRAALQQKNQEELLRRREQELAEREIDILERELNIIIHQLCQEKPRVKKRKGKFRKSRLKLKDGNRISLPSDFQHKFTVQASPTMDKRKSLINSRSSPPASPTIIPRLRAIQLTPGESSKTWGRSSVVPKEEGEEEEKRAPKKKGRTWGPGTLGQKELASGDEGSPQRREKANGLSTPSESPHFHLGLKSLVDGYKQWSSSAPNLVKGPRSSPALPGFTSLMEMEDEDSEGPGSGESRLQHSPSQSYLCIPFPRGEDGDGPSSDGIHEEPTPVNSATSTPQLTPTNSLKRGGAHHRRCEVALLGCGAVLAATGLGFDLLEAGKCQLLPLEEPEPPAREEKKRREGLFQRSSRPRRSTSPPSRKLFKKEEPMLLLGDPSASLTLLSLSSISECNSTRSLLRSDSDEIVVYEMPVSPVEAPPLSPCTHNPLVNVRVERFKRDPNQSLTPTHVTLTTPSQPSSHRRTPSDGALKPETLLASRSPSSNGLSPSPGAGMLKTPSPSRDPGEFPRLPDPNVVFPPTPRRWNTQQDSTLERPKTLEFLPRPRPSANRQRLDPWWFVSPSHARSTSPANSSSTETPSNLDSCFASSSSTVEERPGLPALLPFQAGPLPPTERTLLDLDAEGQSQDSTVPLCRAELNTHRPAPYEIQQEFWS
smiles,measurement,setting,value
"Cc1ncsc1-c1ccc([C@H](C)NC(=O)[C@@H]2C[C@@H](O)CN2C(=O)[C@@H](NC(=O)[C@H]2CC[C@H](C(=O)N3CCN(CCNC(=O)c4cc(Oc5ccc(NC(=O)Nc6cc(C(C)(C)C)on6)cc5)ccn4)CC3)CC2)C(C)(C)C)cc1 [MA191, 4-(4-(3-(5-(tert-Butyl)isoxazol-3-yl)ureido)phenoxy)-N-(2-(4-(trans-4-(((S)-1-((2S,4R)-4-hydroxy-2-(((S)-1-(4-(4-methylthiazol-5-yl)phenyl)ethyl)carbamoyl)pyrrolidin-1-yl)-3,3-dimethyl-1-oxobutan-2-yl)carbamoyl)cyclohexanecarbonyl)piperazin-1-yl)ethyl)picolinamide]",remaining activity at 1 µM,NEK3,100%
same,Tracer bound,SIK3,106.3%
same,remaining activity at 1 µM,MAP3K9,108%
same,remaining activity at 1 µM,FGFR4,92.7%
same,Tracer bound,TYK2,105.6%
same,remaining activity at 1 µM,SNRK,97%
same,Tracer bound,IRAK4,114.7%
same,Tracer bound,CDK2-CCNE1,102.5%
same,remaining activity at 1 µM,MUSK,66%
same,remaining activity at 1 µM,PAK4,101%
same,remaining activity at 1 µM,PRKCD-PMA,115%
same,Tracer bound,RPS6KA6,107.5%
same,remaining activity at 1 µM,BRSK1,107%
same,remaining activity at 1 µM,PRKCE-PMA,78.3%
same,remaining activity at 1 µM,PHKG1,93.5%
